Structures can show the parent of a compound that is named as a salt. Activity calls are given as the source filed them. The calls are words filed in the database; no cut-off is given here.
Key:
[1] = test system: A549; experiment: Cytotoxicity against human A549 cells assessed as inhibition of cell growth after 48 hrs by sulforhodamine B assay; assay type: functional, cell-based; conditions: A549, 48 h
[2] = Cytotoxicity against human THP1 cells assessed as inhibition of cell growth after 48 hrs by sulforhodamine B assay; assay type: functional, cell-based; conditions: THP-1, 48 h
[3] = Cytotoxicity against human PC3 cells assessed as inhibition of cell growth after 48 hrs by sulforhodamine B assay; assay type: functional, cell-based; conditions: PC-3, 48 h
[4] = Cytotoxicity against human HCT116 cells assessed as inhibition of cell growth after 48 hrs by sulforhodamine B assay; assay type: functional, cell-based; conditions: HCT-116, 48 h
[5] = test system: PC-3; experiment: Induction of apoptosis in human PC3 cells assessed as cell shrinkage at IC50 incubated for 12 hrs by DAPI staining based confocal microscopy; assay type: functional
[6] = test system: PC-3; experiment: Induction of apoptosis in human PC3 cells assessed as cell rounding at IC50 incubated for 12 hrs by DAPI staining based confocal microscopy; assay type: functional
[7] = test system: PC-3; experiment: Induction of apoptosis in human PC3 cells assessed as plasma membrane blebbing at IC50 incubated for 12 hrs by DAPI staining based confocal microscopy; assay type: functional, cell-based
[8] = test system: PC-3; experiment: Induction of apoptosis in human PC3 cells assessed as smoothening of cell surface at IC50 incubated for 6 hrs by scanning electron microscopy; assay type: functional, cell-based
[9] = test system: PC-3; experiment: Induction of apoptosis in human PC3 cells assessed as plasma membrane blebbing at IC50 incubated for 6 hrs by scanning electron microscopy; assay type: functional, cell-based
[10] = test system: PC-3; experiment: Induction of apoptosis in human PC3 cells assessed as smoothening of cell surface at IC50 incubated for 12 hrs by scanning electron microscopy; assay type: functional, cell-based
[11] = test system: PC-3; experiment: Induction of apoptosis in human PC3 cells assessed as plasma membrane blebbing at IC50 incubated for 12 hrs by scanning electron microscopy; assay type: functional, cell-based
[12] = test system: PC-3; experiment: Induction of apoptosis in human PC3 cells assessed as decrease in cell size at IC50 incubated for 12 hrs by scanning electron microscopy; assay type: functional, cell-based
[13] = Cell cycle arrest in human PC3 cells assessed as accumulation at subG1 phase at 5 uM after 12 hrs by propidium iodide staining based flow cytometry (reference value: 29.6%); assay type: functional; conditions: PC-3
[14] = Cell cycle arrest in human PC3 cells assessed as accumulation at subG1 phase at 10 uM after 12 hrs by propidium iodide staining based flow cytometry (reference value: 29.6%); assay type: functional; conditions: PC-3
[15] = Cell cycle arrest in human PC3 cells assessed as accumulation at subG1 phase at 15 uM after 12 hrs by propidium iodide staining based flow cytometry (reference value: 29.6%); assay type: functional; conditions: PC-3
[16] = test system: PC-3; experiment: Induction of apoptosis in human PC3 cells assessed as mitochondrial membrane potential depolarization after 12 hrs using rhodamine 123 by spectrofluorimetric analysis; assay type: functional, cell-based
[17] = test system: PC-3; experiment: Induction of apoptosis in human PC3 cells assessed as increase in intracellular ROS level after 24 hrs using DCFH-DA by spectrofluorimetric analysis; assay type: functional, cell-based
[18] = Induction of apoptosis in CHO cells assessed as viable cells at 10 uM after 24 hrs by Annexin V-FITC/propidium iodide staining based flow cytometry (reference value: 91.8%); assay type: cell-based, Cricetulus griseus; conditions: chinese hamster, read-out: Activity
[19] = test system: CHO; experiment: Induction of apoptosis in CHO cells assessed as early apoptotic cells at 10 uM after 24 hrs by Annexin V-FITC/propidium iodide staining based flow cytometry (reference value: 3%); assay type: cell-based, Cricetulus griseus; conditions: chinese hamster
[20] = test system: CHO; experiment: Induction of apoptosis in CHO cells assessed as late apoptotic cells at 10 uM after 24 hrs by Annexin V-FITC/propidium iodide staining based flow cytometry (reference value: 1%); assay type: cell-based, Cricetulus griseus; conditions: chinese hamster
[21] = test system: CHO; experiment: Induction of apoptosis in CHO cells assessed as necrotic cells at 10 uM after 24 hrs by Annexin V-FITC/propidium iodide staining based flow cytometry (reference value: 4.3%); assay type: cell-based, Cricetulus griseus; conditions: chinese hamster
[22] = Cell cycle arrest in human PC3 cells assessed as accumulation at subG1 phase at 2 uM after 12 hrs by propidium iodide staining based flow cytometry (reference value: 29.6%); assay type: functional; conditions: PC-3
[23] = Cell cycle arrest in human PC3 cells assessed as accumulation at subG1 phase after 12 hrs by propidium iodide staining based flow cytometry; assay type: functional; conditions: PC-3

CC1(C)CCC[C@@]2(C)C1=C[C@H]1C(=O)O[C@H](c3ccccc3F)[C@H]12 showed an IC50 [1] of over 50 µM, an IC50 [2] of over 50 µM and an IC50 [3] of over 50 µM. The IC50 [4] was over 50 µM.

COc1ccccc1[C@H]1OC(=O)[C@@H]2C=C3C(C)(C)CCC[C@]3(C)[C@H]12 showed an IC50 [1] of 18 µM, an IC50 [2] of over 50 µM and an IC50 [3] of 10 µM. For the same compound, the IC50 [4] was 15 µM, the Activity [5] was “Active” and the Activity [6] was “Active”. For the same compound, the Activity [7] was “Active”, the Activity [8] was “Active” and the Activity [9] was “Active”. For the same compound, the Activity [10] was “Active”, the Activity [11] was “Active” and the Activity [12] was “Active”. It also gave an Activity [13] of 59.8%, an Activity [14] of 68.1% and an Activity [15] of 77.5%. For the same compound, the Activity [16] was “Dose-dependent effect”, the Activity [17] was “Dose-dependent effect” and the viability at 24 h, 10 µM [18] was 56.8%. For the same compound, the Activity [19] was 36.2%, the Activity [20] was 6.1% and the Activity [21] was 0.8%.

For CC1(C)CCC[C@@]2(C)C1=C[C@H]1C(=O)[C@H](c3ccccc3F)[C@H]12, the IC50 [1] was 36 µM, the IC50 [2] was 18 µM and the IC50 [3] was over 50 µM. For the same compound, the IC50 [4] was 17 µM.

CC1(C)CCC[C@@]2(C)C1=C[C@H]1C(=O)O[C@H](c3ccccc3Br)[C@H]12 gave an IC50 [1] of over 50 µM, an IC50 [2] of over 50 µM and an IC50 [3] of over 50 µM. It also gave an IC50 [4] of over 50 µM.

Compound CC1(C)CCC[C@@]2(C)C1=C[C@H]1C(=O)O[C@H](c3ccc(Cl)c(Cl)c3)[C@H]12 has an IC50 [1] of over 50 µM, an IC50 [2] of over 50 µM and an IC50 [3] of 12 µM. It also gave an IC50 [4] of 20 µM.

For CC1(C)CCC[C@@]2(C)C1=C[C@H]1C(=O)[C@H](c3ccc(Cl)c(Cl)c3)[C@H]12, the IC50 [1] was over 50 µM, the IC50 [2] was over 50 µM and the IC50 [3] was over 50 µM. For the same compound, the IC50 [4] was 38 µM.

Work on Cc1ccccc1[C@H]1OC(=O)[C@@H]2C=C3C(C)(C)CCC[C@]3(C)[C@H]12 yielded an IC50 [1] of 23 µM, an IC50 [2] of over 50 µM and an IC50 [3] of 21 µM. It also gave an IC50 [4] of over 50 µM.

CC[C@@]1(O)C(=O)OCc2c1cc1n(c2=O)Cc2cc3ccccc3nc2-1 [CAMPTOTHECIN] gave an Activity [22] of 60.9%, a viability at 24 h, 10 µM [18] of 74.8% and an Activity [19] of 21.6%. For the same compound, the Activity [20] was 2.4% and the Activity [21] was 1.2%.

For CC1(C)CCC[C@@]2(C)C1=C[C@H]1C(=O)[C@H](c3ccccc3Br)[C@H]12, the IC50 [1] was 28 µM, the IC50 [2] was 10 µM and the IC50 [3] was over 50 µM. The IC50 [4] was 19 µM.

For CC1(C)CCC[C@@]2(C)C1=C[C@H]1C(=O)O[C@H](c3ccccc3Cl)[C@H]12, the IC50 [1] was 40 µM, the IC50 [2] was over 50 µM and the IC50 [3] was over 50 µM. For the same compound, the IC50 [4] was over 50 µM.

Work on COc1ccccc1[C@H]1C(=O)[C@@H]2C=C3C(C)(C)CCC[C@]3(C)[C@H]12 yielded an IC50 [1] of 10 µM, an IC50 [2] of 10 µM and an IC50 [3] of 8 µM. The IC50 [4] was 12 µM, the Activity [5] was “Active” and the Activity [6] was “Active”. The Activity [7] was “Active”, the Activity [8] was “Active” and the Activity [9] was “Active”. The Activity [10] was “Active”, the Activity [11] was “Active” and the Activity [12] was “Active”. The Activity [13] was 45.2%, the Activity [14] was 56.6% and the Activity [15] was 74.1%. The Activity [23] was “Dose-dependent effect”, the Activity [16] was “Dose-dependent effect” and the Activity [17] was “Dose-dependent effect”. It also gave a viability at 24 h, 10 µM [18] of 54.5%, an Activity [19] of 37.6% and an Activity [20] of 6.9%. The Activity [21] was 1.1%.

CC1(C)CCC[C@@]2(C)C1=C[C@H]1C(=O)[C@H](c3ccccc3Cl)[C@H]12 gave an IC50 [1] of 25 µM, an IC50 [2] of over 50 µM and an IC50 [3] of over 50 µM. It also gave an IC50 [4] of over 50 µM.

For COc1cccc2c1C(=O)c1c(O)c3c(c(O)c1C2=O)C[C@@](O)(C(=O)CO)C[C@@H]3O[C@H]1C[C@H](N)[C@H](O)[C@H](C)O1 [DOXORUBICIN HYDROCHLORIDE], the IC50 [4] was 0.01 µM.

Work on Cc1ccccc1[C@H]1C(=O)[C@@H]2C=C3C(C)(C)CCC[C@]3(C)[C@H]12 yielded an IC50 [1] of 28 µM, an IC50 [2] of over 50 µM and an IC50 [3] of over 50 µM. The IC50 [4] was over 50 µM.

In the case of O=c1[nH]cc(F)c(=O)[nH]1 [FLUOROURACIL], the IC50 [1] is reported as 0.5 µM.

With CO[C@@]12[C@H](COC(N)=O)C3=C(C(=O)C(C)=C(N)C3=O)N1C[C@@H]1N[C@@H]12 [MITOMYCIN] the IC50 [2] was 0.5 µM and the IC50 [3] was 0.2 µM.

Reference: ChEMBL document CHEMBL3763098, “Induction of apoptosis by cyclobutanones and derived polycyclic -lactones: a preliminary analysis of antiproliferative activity” (Medchemcomm, 2015)
